The values below come from patent US5767134A, “Prodrug forms of ribonucleotide reductase inhibitors 3-AP and 3-AMP” (Vion Pharmaceuticals, Inc., priority 1997, dated 1998).

Counter-ions that a name gives are not always drawn.

For orientation: solubility means the dissolved amount per volume that the medium holds.

Data set [1] has as its system A2780 human ovarian carcinoma. To be noted: compared with other HCTs reported to date; cited from earlier work.
Data set [2] has as its system L1210 leukemia. As to conditions: compared with other HCTs reported to date; cited from earlier work.
Data set [3] deals with M-109 lung carcinoma. As to conditions: compared with other HCTs reported to date; cited from earlier work.
For data set [4] the following is noted: vs hydroxyurea; cited from earlier work.
A short description of data set [5]: Water solubility in deionized water. The class given is physicochemical. To be noted: for Dissolution observed in water: 3-AP: 5 mg in 100 mL, room temperature, 2 hours, prodrug I: 8 mg in 0.5 mL, a few minutes. On the procedure:
In order to test the water solubility of Prodrug I (disodium salt) compared to 3-AP, the following procedure was used. To test the water solubility of 3-AP in deionized water, 5 mg of 3-AP was placed in a 125 mL erlenmeyer flask to which was added 100 mL of water. The mixture was well shaken at room temperature. […] Total water solubility of 3-AP in deionized water was <1 mg/20 mL. In the case of prodrug I (para), 8 mg of the prodrug was placed in a 50 mL erlenmeyer flask.

A short description of data set [6]: Conversion of Prodrug I (para) to 3-AP in vitro in presence of S9 fraction of rat liver (FIG. 9). The format is in vitro ADME. On the procedure: FIG. 9 depicts a graph of the conversion of Prodrug I (para) to 3-AP in the presence of liver S9 fraction.
A 1 μM solution of Prodrug I in culture media was incubated with approximately 2.5 mg of liver S9 fraction.

The nature of data set [7]: Stability of Prodrug I in culture media alone, HPLC assay. The class given is in vitro ADME. To be noted: 37° C., two hours.
The subject of data set [8] is M109 tumor cells. As to the kind of experiment: In vivo efficacy, M109 tumor growth in Balb/c mice (FIG. 10). As to conditions: 10 mg/kg per injection vs equal molar dose of 3-AP (4.5 mg/kg). Here is the method: (§1) FIGS. 10 and 11 depict a graph comparing the reduction in M109 tumor growth in Balb/c Mice treated with a control, 3-AP or Prodrug I (para).
(§2) Balb/c mice were subcutaneously injected in the right flank on Day 0 with 0.2 mL of a 5×10^6 cell/mL suspension of M109 tumor cells which had been grown to log phase in culture, trypsin digested to separate, washed with PBS and reconstituted. Injections of 3-AP, Prodrug I, or Vehicle Control were given to the […] twice on Day 3, once on Day 4, twice on Day 6 and once on Day 7. Ten mice received only injections of 3 AP, each injection providing a dose of 4.5 mg/kg body weight. Ten mice received only injections of Prodrug I, each injection providing a dose of 10 mg/kg body weight. Ten mice received only injections of the vehicle control. […] FIG. 11 also compares the reduction in M109 tumor growth in Balb/c Mice using two vehicle controls (1-phosphate buffered […] and 2- 10% DMSO). […] Control I was used as a control for the prodrug; control 2 was used for the parent drug.
(§3) Balb/c mice were subcutaneously injected in the right flank on Day 0 with 0.2 mL of a 5×10^6 cell/mL suspension of M109 tumor cells which had been grown to log phase in culture, trypsin digested to separate, washed with PBS and reconstituted. […]

Data set [9] concerns M109 tumor. As to the kind of experiment: M109 tumor growth in Balb/c mice with two vehicle controls (FIG. 11). The format is in vivo. On the procedure: as §1, §2, §3

Regarding `Cc1ccnc(C=NNC(N)=S)c1N` [Prodrug 3-AMP, 3-amino-4-methylpyridine-2-carboxaldehyde thiosemicarbazone], the “Therapeutic effects against A2780 human ovarian carcinoma” value in data set [1] is reported as “much better therapeutic effects”. Besides, the “Therapeutic effects against L1210 leukemia” value in data set [2] was “much better therapeutic effects”. Besides, in data set [3], the “Therapeutic effects against M-109 lung carcinoma” value was “much better therapeutic effects”. Further, in data set [4], the “Antineoplastic activity in comparison with hydroxyurea (HU)” value is recorded as “significant antineoplastic activity”.

As to `NC(=S)NN=Cc1ncccc1N` [Prodrug 3-AP, 3-aminopyridine-2-carboxaldehyde thiosemicarbazone], the “Therapeutic effects against A2780 human ovarian carcinoma” value in data set [1] was “much better therapeutic effects”. Also, the “Therapeutic effects against L1210 leukemia” value in data set [2] is listed as “much better therapeutic effects”. For the same compound, the “Therapeutic effects against M-109 lung carcinoma” value in data set [3] is listed as “much better therapeutic effects”. In addition, in data set [4], the “Antineoplastic activity in comparison with hydroxyurea (HU)” value is reported as “significant antineoplastic activity”. For the same compound, the “Dissolution observed in water” value in [5] is “not totally dissolved”. For the same compound, the “Total water solubility in deionized water” value in data set [5] (120 min) was less than 1 mg/20 mL. The “Stability of recovered 3-AP in liver S9 fraction” value in [6] (liver S9 fraction) is reported as “stable”.

Regarding `NC(=S)NN=Cc1ncccc1NC(=O)OCc1ccc(OP(=O)(O)O)cc1` [Prodrug I (disodium salt)], the “Dissolution observed in water” value in data set [5] is “readily dissolved”. Moreover, in [5] (disodium salt vs 3-AP, deionized water), the “Increase in water solubility over 3-AP” value is given as “more than 300 fold”. Further, the solubility in data set [5] (disodium salt, deionized water, read-out: Total water solubility in deionized water) was no less than 16 mg/mL.

Take `NC(=S)NN=Cc1ncccc1NC(=O)OCc1ccc(OP(=O)(O)O)cc1` [Prodrug I (para)]: the “Prodrug concentration in culture media alone” value in [7] is recorded as “relatively stable”. In addition, the “3-AP found in culture media alone” value in [7] (HPLC) is “no 3-AP was found”. Moreover, the “Reduction of tumor growth compared with 3-AP” value is “significantly more effective” in data set [8] (tumors measured Days 7, 10, 13, 17) and “slightly more effective” in [8] (tumors measured Days 7, 10, 13, 17, listed as Prodrug I). Also, the “Course of prodrug concentration with liver S9 fraction” value in data set [6] (1 μM, approximately 2.5 mg liver S9 fraction, 37° C.) is given as “decreased very rapidly”. Further, in [6] (1 μM, approximately 2.5 mg liver S9 fraction, after 100 minutes at 37° C.), the “Prodrug concentration after incubation with liver S9 fraction” value is given as “below detection limits”. Moreover, in [6] (1 μM, liver S9 fraction, 37° C.), the Other metabolites found result is recorded as “no other metabolites were found”. Besides, in data set [6] (liver S9 fraction, 37° C.), the “Rate of conversion of Prodrug I to 3-AP” value is on record as 20 nmole/min/mg rat liver tissue. The metabolised at 1 µM in data set [6] (rat, 1 μM, liver S9 fraction, 37° C., read-out: Prodrug recovered as 3-AP) was roughly 80%. The “Anti-tumor activity compared to 3-AP or the two controls” value in data set [9] (controls PBS and 10% DMSO) is listed as “superior anti-tumor activity”. Besides, the “Reduction of M109 tumor growth compared with 3-AP” value in [9] (mole-to-mole basis) is given as “more effective”.
